In PubChem BioAssay (NCI) one finds GI50 and TGI data, which are given here for eight compounds.

Test systems include KM12 colon; TK-10 renal; CAKI-1 renal; U251 CNS; MOLT-4 leukemia; RXF 393 renal; NCI-H460 lung; PC-3 prostate; OVCAR-3 ovarian; 786-0 renal.
Experiment in all cases: NCI-60 cell line screen, 48 h

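Where inhibition never reached the appropriate level, the endpoint shown equals the highest concentration tested. Otherwise, values were interpolated linearly from a five-concentration, 48-hour dose response in 96-well plates. Abbreviation: GI50, concentration required for 50% inhibition of growth. TGI: total growth inhibition.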 Bounds are passed on as bounds.

Consider `O=c1[nH]cnc2c1nnn2[C@@H]1O[C@H](CO)[C@@H](O)[C@H]1O`, for which the GI50 is 7.85 µM with KM12 colon; 9.1 µM in the assay with TK-10 renal; 1.04 µM in the assay on CAKI-1 renal; 25.8 µM in the assay with U251 CNS; 1.96 µM in the assay with MOLT-4 leukemia; 4.31 µM with RXF 393 renal. Moreover, the GI50 was 2.51 µM in the assay with NCI-H460 lung, 2.77 µM in the assay on PC-3 prostate, 3.43 µM in the assay with OVCAR-3 ovarian and 3.83 µM in the assay with 786-0 renal. The TGI in the assay on KM12 colon was over 100 µM; in the assay with TK-10 renal, over 100 µM; with CAKI-1 renal it was over 100 µM; in the assay with U251 CNS, over 100 µM; with MOLT-4 leukemia it was 22.9 µM; with RXF 393 renal, over 100 µM. For the same compound, the TGI is over 100 µM with NCI-H460 lung, over 100 µM with PC-3 prostate, 33.8 µM with OVCAR-3 ovarian and over 100 µM in the assay on 786-0 renal.

Turning to `O=C1OC2(c3ccccc31)c1cc(I)c(O)c(I)c1Oc1c2cc(I)c(O)c1I`, the TGI in the assay on KM12 colon was 43.1 µM; in the assay with TK-10 renal it was over 100 µM; in the assay on CAKI-1 renal, 85 µM; in the assay on U251 CNS it was over 100 µM; with MOLT-4 leukemia, over 100 µM; in the assay with RXF 393 renal, over 100 µM. The TGI in the assay with NCI-H460 lung, in the assay on PC-3 prostate, in the assay on OVCAR-3 ovarian and with 786-0 renal was over 100 µM each time.

`CC(=O)O[C@H]1C(=O)[C@@]2(C)[C@H]([C@H](OC(=O)c3ccccc3)[C@]3(O)C[C@H](OC(=O)[C@H](OC(=O)CCC(=O)OC4CCC(S/N=C(N)/N=C(\N)N(C)C)CC4)[C@@H](NC(=O)c4ccccc4)c4ccccc4)C(C)=C1C3(C)C)[C@]1(OC(C)=O)CO[C@@H]1C[C@@H]2O` (some centres undefined): the GI50 in the assay with KM12 colon was 0.0106 µM; in the assay on TK-10 renal, 0.0205 µM; in the assay with CAKI-1 renal, 1.27 µM; with U251 CNS it was 0.00815 µM; in the assay on MOLT-4 leukemia, 0.0154 µM; in the assay on RXF 393 renal, 0.0135 µM. Besides, the GI50 is 0.0069 µM in the assay on NCI-H460 lung, 0.0155 µM in the assay with PC-3 prostate, 0.0112 µM in the assay on OVCAR-3 ovarian and 0.115 µM in the assay on 786-0 renal. The TGI is over 50 µM with KM12 colon; 1.65 µM with TK-10 renal; over 50 µM in the assay with CAKI-1 renal; over 50 µM with U251 CNS; over 50 µM with MOLT-4 leukemia; over 50 µM in the assay on RXF 393 renal. In addition, the TGI with NCI-H460 lung is over 27.7 µM; in the assay on PC-3 prostate it was over 50 µM; with OVCAR-3 ovarian, over 50 µM; in the assay on 786-0 renal, over 50 µM.

For `Cn1c(Cc2ccccc2)nc2cc3ccccc3cc21`, the GI50 in the assay on KM12 colon is 23.9 µM; in the assay on TK-10 renal, 47.9 µM; with CAKI-1 renal it was 35.5 µM; in the assay with U251 CNS, 28.2 µM; in the assay on MOLT-4 leukemia it was 32.6 µM; with RXF 393 renal, 35.6 µM. For the same compound, the GI50 in the assay on NCI-H460 lung is 27.6 µM; with PC-3 prostate it was 18.8 µM; in the assay on OVCAR-3 ovarian, 36.4 µM; with 786-0 renal it was 26 µM. Further, the TGI in the assay on KM12 colon, in the assay on TK-10 renal, with CAKI-1 renal, in the assay on U251 CNS, in the assay on MOLT-4 leukemia and in the assay with RXF 393 renal was over 100 µM each time. Moreover, the TGI with NCI-H460 lung was over 100 µM; in the assay on PC-3 prostate, 59.6 µM; in the assay with OVCAR-3 ovarian it was over 100 µM; in the assay with 786-0 renal, 65.1 µM.

On to `Cc1c(N(C(=O)c2cc(-c3cc(Cl)ccc3C(=O)N3Cc4ccccc4C[C@H]3CN3CCOCC3)n(C)c2C)c2ccc(O)cc2)cc(C#N)n1C`, for which the GI50 is 51 µM with KM12 colon; 12.8 µM in the assay on TK-10 renal; 6.35 µM in the assay on CAKI-1 renal; 18.9 µM in the assay on U251 CNS; 2.98 µM in the assay on MOLT-4 leukemia; 3.88 µM in the assay with RXF 393 renal. Further, the GI50 is 31.3 µM in the assay on NCI-H460 lung, 11.3 µM in the assay on PC-3 prostate, 11 µM in the assay with OVCAR-3 ovarian and 12.5 µM in the assay with 786-0 renal. Further, the TGI with KM12 colon is over 100 µM; in the assay with TK-10 renal it was 78 µM; in the assay on CAKI-1 renal it was over 100 µM; with U251 CNS it was over 100 µM; with MOLT-4 leukemia it was over 100 µM; with RXF 393 renal it was 17.6 µM. Further, the TGI in the assay on NCI-H460 lung was over 100 µM; in the assay on PC-3 prostate, over 100 µM; with OVCAR-3 ovarian, over 100 µM; in the assay on 786-0 renal, 36.8 µM.

Take `O=C1CN2CCC1C/C2=C\c1ccnc2c(Cl)cccc12` (centres undefined): the GI50 with KM12 colon is 56.8 µM; in the assay with TK-10 renal it was over 100 µM; with CAKI-1 renal, 21 µM; in the assay with U251 CNS, 64.4 µM; in the assay with MOLT-4 leukemia it was 44.4 µM; in the assay on RXF 393 renal, over 100 µM. In addition, the GI50 with NCI-H460 lung was 72.8 µM; in the assay on PC-3 prostate it was 89 µM; with OVCAR-3 ovarian it was over 100 µM; in the assay with 786-0 renal, over 100 µM. Also, the TGI with KM12 colon, with TK-10 renal, in the assay with CAKI-1 renal, with U251 CNS, in the assay with MOLT-4 leukemia and with RXF 393 renal was over 100 µM throughout. The TGI in the assay with NCI-H460 lung, in the assay on PC-3 prostate, with OVCAR-3 ovarian and with 786-0 renal was over 100 µM in each case.

As to `COc1cc(N)ccc1Nc1c2ccccc2nc2ccccc12`, the GI50 in the assay on KM12 colon was 7.56 µM; in the assay on TK-10 renal, 14.6 µM; with CAKI-1 renal, 7.75 µM; in the assay on U251 CNS, 4.39 µM; with MOLT-4 leukemia, 2.21 µM; with RXF 393 renal, 11.5 µM. Also, the GI50 in the assay on NCI-H460 lung was 1.38 µM; in the assay on PC-3 prostate, 10.6 µM; with OVCAR-3 ovarian, 12.2 µM; in the assay with 786-0 renal, 12.7 µM. In addition, the TGI with KM12 colon is 20.5 µM; in the assay on TK-10 renal, 30.2 µM; in the assay on CAKI-1 renal it was 25.1 µM; in the assay on U251 CNS, 11.5 µM; in the assay on MOLT-4 leukemia, over 28.5 µM; in the assay on RXF 393 renal, 27 µM. Besides, the TGI with NCI-H460 lung stood at 7.72 µM; in the assay with PC-3 prostate, 29.6 µM; in the assay with OVCAR-3 ovarian, 25.4 µM; in the assay with 786-0 renal, 27.2 µM.

With `CC(=O)NC(Cc1c[nH]c2ccccc12)C(=O)O` (centres undefined), the TGI in the assay on KM12 colon, in the assay on TK-10 renal, with CAKI-1 renal, with U251 CNS, with RXF 393 renal and with NCI-H460 lung was over 100 µM each time. Also, the TGI in the assay on PC-3 prostate, in the assay on OVCAR-3 ovarian and in the assay on 786-0 renal was over 100 µM in each case.
